Measurements from a melting point compilation (Tetko et al.; mined from patent text by program, amines drawn as free bases though some values may be those of a salt).

Row | SMILES | melting point [°C]
1 | CC(C)Cn1c(CO)c(-c2ccc(Cl)cc2)c2cc(OCc3ccccc3)ccc2c1=O | 87 to 88
2 | Cc1cc(Oc2ccc(C#CC(C)N(O)C(N)=O)o2)ccc1F (stereo not given) | 131 to 132
3 | COc1cnc(-c2cccn3nc(Nc4ccc(C5CCN(CC(=O)N(C)C)CC5)cc4)nc23)cn1 | 185 to 187
4 | CC(OC(=O)C12CC3CC(CC(C3)C1)C2)c1ccncc1 (single isomer, unassigned; (-)) | 164 to 166
5 | CC(C)(C)NS(=O)(=O)c1cnc(-c2cn(-c3cc(C(F)(F)F)cc(-c4ccc(C(F)(F)F)cc4)n3)cn2)s1 | 236
6 | Cc1cc(SCc2sc(-c3ccc(Cl)cc3)nc2C)ccc1OCC(=O)O | 109
7 | C#CCOc1cc(N)ccc1C | 75 to 77
8 | CC(C)N1C(=O)C(=O)N(c2cc(Cl)cc(Cl)c2)S1=O (stereo not given) | 109
9 | Nc1ccc(N2CCN(CCCN3c4cccc5cccc(c45)S3(=O)=O)CC2)cc1 | 113
10 | CCCc1c(OCCCS(=O)(=O)c2ccc(C(=O)CCC(=O)O)cc2F)ccc(C(C)=O)c1O | 154 to 156
11 | Cc1cc(C)c(Nc2nc(C)ncc2S(=O)(=O)c2ccc(-c3ncc[nH]3)cc2)c(C)c1 | 282 to 284
12 | CCCCCCCCC=CCCCCCCCCn1c(=O)[nH][nH]c1=O | 120
13 | CCC(=O)OCOC(=O)c1cc(S(N)(=O)=O)c(Cl)cc1NCc1ccco1 | 141 to 142
14 | CN1CC=C(C(=O)N2c3ccccc3NC(=O)c3ccccc32)CC1 | 233 to 234
15 | CN(C)n1c(S)nc2ccccc2c1=O | 245 to 249
16 | CCOC(=O)Cc1ccc(NC(=O)CCc2cnoc2-c2ccc(Cl)cc2)cc1 | 117 to 118
17 | COc1ccc(N2CCOCC2)c2sc(C(=O)NCc3ccccc3)nc12 | 156 to 158
18 | N#CC(NC(=O)c1cccn2cc(-c3ccccc3)nc12)c1cccc(Cl)c1 (stereo not given) | 210 to 211
19 | COC(=O)c1ccccc1C=Nc1cc(C)ccc1O | 82 to 83
20 | CCOC(=O)c1ccc(C(C(N)=O)C(C)c2cc(C)ccc2N2CCCCC2)cc1 (stereo not given) | 132
21 | CCOCCn1cc2c(C3C(=O)Nc4ccc(Cl)cc43)nc(Cl)nc2n1 (stereo not given) | > 300
22 | N#CC1=C(c2ccccc2)Nc2n[nH]cc2C1c1cccc(C(F)(F)F)c1Cl (stereo not given) | > 250
23 | CC(CNC(=O)C=CC=Cc1ccccc1)C(=O)NO (stereo not given) | 178 to 179
24 | CC(=C1SC(=O)NC1=O)c1ccc(OCCOc2c(-c3ccc(F)c(F)c3)n(C)c3cc(Cl)ccc3c2=O)c(Cl)c1 | 140 to 142
25 | COc1cnc(Cl)c(C(=O)O)c1 | 169 to 170

Row | SMILES | melting point [°C]
26 | Cc1nc2cc(C(C)(C)C)c(O)cc2o1 | 264 to 266
27 | CCOC(=O)NOC(=O)c1ccc(Cl)cc1 | 79
28 | COc1ccc(-c2ccc(=O)n(Cc3nc(-c4ccc(F)cc4)no3)c2)cc1 | 123
29 | CCOC(=O)c1ccc(N)cc1-c1ccc(OC)c(OC)c1 | 127
30 | CCOC(=O)C1=C(C)Nc2c(C(=O)OCC)ncn2C1c1cccc([N+](=O)[O-])c1 (stereo not given) | 160 to 162
31 | COc1ccc(-c2cccs2)cc1/C=C/C(=O)c1ccc(C(=O)O)cc1 | 195 to 196
32 | CCOC(=O)COc1cc2c(c(O)c1Cl)C(=O)CC1(CCCCC1)O2 | 103 to 104
33 | Cc1cncn1CC(O)c1ccccc1 (stereo not given) | 193
34 | COC(=O)c1nc(C#N)ccc1OCc1ccccc1 | 104 to 105
35 | COc1ccc2c(c1)C(=O)C(Br)=C(Br)C2=O | 146 to 148
36 | COc1ccc2c(c1)CCC1C3CCC(=O)C3(C)CCC21O (stereo not given) | 69 to 74
37 | O=C1CCC(c2ccc3c(c2)OCO3)CC1 | 92 to 93.5
38 | Cc1[nH]c(=S)n(Nc2cccc(Cl)c2)c1C | 234
39 | COc1cccc(-c2nc(N)nc(Nc3cccc([N+](=O)[O-])c3)n2)c1 | 197
40 | CC(=O)OC1CSC(Oc2cnccc2C(F)(F)F)C(OC(C)=O)C1OC(C)=O (stereo not given) | 198
41 | O=C1CC(CO)(C(=O)N(Cc2ccccc2)Cc2ccccc2)CN1Cc1ccccc1 (stereo not given) | 127 to 129
42 | COc1cccc(-c2nc(C(=O)c3ccc(N)c(OC)c3)n3ccccc23)c1 | 210
43 | Cc1c(-c2ccc([N+](=O)[O-])cc2)sc2[nH]c(=O)n(-c3ccccc3)c(=O)c12 | > 300
44 | COc1ccc([N+](=O)[O-])c2c1OCC(C(=O)O)C2 (stereo not given) | 181 to 183
45 | CC(C)Nc1c(C#N)cnn1-c1c(Cl)cc(SC(F)(F)F)cc1Cl | 130
46 | CSCC[C@H](N)C(=O)NC(=O)N(CCCl)N=O | 95 to 97
47 | O=[N+]([O-])c1ccc2[nH]c(C(F)(F)F)cc2c1 | 190 to 193
48 | CC(C)[Si](Oc1c(F)cc([C@@H](O)[C@@H](C)N2CCC(O)(c3ccc(Cl)cc3)CC2)cc1F)(C(C)C)C(C)C (relative stereo) | 192
49 | COC(=O)c1csc(C)c1S(=O)(=O)NC(=O)Nc1nc(C)nc(OC)n1 | 195
50 | CCc1ccc(N(Cc2ccc(N3CCOCC3)cc2)C(=O)C2CCCc3c(O)cccc32)cc1 (stereo not given) | 200
